This note sets out measurements from patent US6900193B1, “Structural modification of 19-norprogesterone I: 17-α-substituted-11-β-substituted-4-aryl and 21-substituted 19-norpregnadienedione as new antiprogestational agents” (The United States of America as represented by the …, priority 1996, dated 2005).

The subject of assay [1] is progesterone-induced endometrial proliferation. Nature of the assay: AntiClauberg test. It counts as in vivo, rabbit. To be noted: oral; for BIOLOGICAL ACTIVITY antiClauberg: Table 2; for antiClauberg / oral antiprogestational activity, in words: versus the standard 69B. Also on record: key to ANTIPROGESTATIONAL Anti-Clauberg: relative oral potency vs. reference compound set to 100. As for the experimental part:
AntiClauberg Test (Clauberg, C., Zentr. Gynakol., 54:2757-2770 (1930)) Immature female rabbits of the New Zealand White breed (approx. 1 kg body weight) were maintained under standard laboratory conditions and received a subcutaneous injection of 5 μg estradiol in 10% ethanol/sesame oil daily for 6 consecutive days. Twenty-four hours after the last dose of estradiol (day 7) animals received progesterone by subcutaneous injection (0.8 mg/day) and the experimental compound in appropriate vehicle (usually 10% ethanol/sesame oil) orally or subcutaneously for five consecutive days. One group of rabbits received progesterone only. Twenty-four hours after the last dose all animals were sacrificed for removal of the uterus which was cleaned of all fat and connective tissue, weighed to the nearest 0.2 mg and placed in 10% neutral buffered formalin for subsequent histological processing. Five micron sections stained with hematoxylin and eosin (H&E) were evaluated microscopically for the degree of endometrial glandular proliferation according to the method of McPhail (McPhail, supra). The percent inhibition of endometrial proliferation at each dose level of the experimental compound was derived by comparison with the progesterone-stimulated animals alone.

The target of assay [2] is T1, progesterone receptor (estrogen-primed rabbit uterus) (Oryctolagus cuniculus, UniProt P06186).
T1 construct: preparation of cytosols for the progesterone and glucocorticoid receptor assays; from tissue; host or cells: uterus of estradiol-primed immature female New Zealand White rabbits (cytosol)
T1 sequence (P06186 1-930): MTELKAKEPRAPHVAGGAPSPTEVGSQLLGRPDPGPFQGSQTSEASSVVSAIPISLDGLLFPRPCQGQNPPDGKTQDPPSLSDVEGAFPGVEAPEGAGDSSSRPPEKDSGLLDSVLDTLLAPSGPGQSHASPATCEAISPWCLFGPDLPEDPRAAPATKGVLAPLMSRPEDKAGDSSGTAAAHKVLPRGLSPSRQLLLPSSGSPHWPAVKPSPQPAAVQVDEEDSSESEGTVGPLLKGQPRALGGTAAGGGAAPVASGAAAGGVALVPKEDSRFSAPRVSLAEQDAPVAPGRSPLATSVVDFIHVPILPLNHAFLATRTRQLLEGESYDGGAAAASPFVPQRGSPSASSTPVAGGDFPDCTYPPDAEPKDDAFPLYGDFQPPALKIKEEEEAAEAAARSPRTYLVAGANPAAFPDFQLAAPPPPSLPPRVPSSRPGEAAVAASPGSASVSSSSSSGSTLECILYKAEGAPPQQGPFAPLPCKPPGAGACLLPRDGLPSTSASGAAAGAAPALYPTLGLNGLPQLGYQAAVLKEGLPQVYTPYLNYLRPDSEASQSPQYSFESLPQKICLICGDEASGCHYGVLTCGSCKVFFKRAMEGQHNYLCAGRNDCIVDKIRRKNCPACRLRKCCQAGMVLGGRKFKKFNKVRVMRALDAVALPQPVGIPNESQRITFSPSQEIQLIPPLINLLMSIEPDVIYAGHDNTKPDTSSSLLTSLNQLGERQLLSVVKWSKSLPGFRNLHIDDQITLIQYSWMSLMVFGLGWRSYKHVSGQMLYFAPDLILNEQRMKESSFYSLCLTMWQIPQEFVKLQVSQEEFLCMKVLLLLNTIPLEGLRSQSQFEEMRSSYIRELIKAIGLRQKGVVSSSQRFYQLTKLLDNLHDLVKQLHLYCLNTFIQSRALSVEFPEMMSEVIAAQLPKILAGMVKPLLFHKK
Description: Relative binding affinity, progesterone receptor. To be noted: for BINDING AFFINITY Progester: Table 2. The method, then:
(§1) Relative Binding Affinities for the Progesterone and Glucocorticoid Receptors
(§2) Uteri and thymus glands were obtained from estradiol-primed immature female rabbits of the New Zealand White strain for preparation of cytosols for the progesterone and glucocorticoid receptor assays, respectively. Tissues were excised and immediately placed in ice cold TEGDM buffer (10 mM Tris, pH 7.4; 1.5 mM EDTA; 10% glycerol vol/vol/; 1 mM dithiothreitol [DTT]; and 20 mM sodium molybdate). The tissues were dissected free of connective tissue and fat, weighed and minced finely. Minced tissues were homogenized in 3 volumes TEGDM/gm with four 10 second bursts of a VirTis Cyclone set at half maximum speed with a 30 second cooling period (in ice) between bursts. Homogenates were centrifuged at 109,663 g at 4° C. for 1 hour to yield the soluble cytosol fiction. Aliquots of cytosol were snap frozen and stored at −75° C.
(§3) All binding assays were carried out at 2-6° C. for 16-18 hours. The following radioactive ligands were used: [1,2-^3H(N)]-progesterone (50.0 Ci/mmole) for the progesterone receptor (PR). […] For the progesterone receptor RBA assays 0.02 ml uterine cytosol or TEDGM buffer, 0.05 ml of various concentrations of test compounds or progesterone, 0.13 ml TEGDM buffer and 0.05 ml [^3H]-progesterone were added to duplicate tubes. For the glucocorticoid receptor RBA assays 0.1 ml thymus cytosol or TEDGM buffer, 0.05 ml of various concentrations of test compounds or dexamethasone, 0.05 ml TEGDM buffer and 0.05 ml [3H]-dexamethasone were added to duplicate tubes. For the estrogen receptor RBA assays 0.05 ml uterine cytosol, 0.1 ml TEGDM buffer, 0.05 ml of various concentrations of test compounds or estradiol and 0.05 ml [^3H]-estradiol were added to duplicate tubes. The concentrations of the test compounds, progesterone, dexamethasone and estradiol ranged from 0.05 to 100 nM and the concentrations of the competitors ranged from 0.5 to 500 nM. Total binding was measured at radioligand concentrations of 3.5 nM and nonspecific binding was measured in the presence of a 200-fold excess of unlabeled progesterone (PR), dexamethasone (GR) or diethylstilbestrol (ER), respectively.
(§4) In all incubations bound and free ligand were separated using dextra-coated charcoal (DCC). A 0.1 ml aliquot of DCC (0.5% charcoal/0.05% Dextran T-70) was added to each tube. The tubes were vortexed and incubated on ice for 10 minutes. Five-tenths ml TEG buffer (without DTT or molybdate) was then added to all tubes to improve supernatant recovery following centrifugation. The charcoal was pelleted by centrifugation at 2,100 g for 15 minutes at 4° C. The supernatants containing the [^3H]-steroid receptor complexes were decanted into vials containing 4 ml Optifluor (Packard Instrument Co.), vortexed, equilibrated in a liquid scintillation counter for 30 minutes and then counted for 2 minutes. This provided the quantity of receptor bound [^3H]-steroid at each competitor concentration.

For assay [3], the target named is T2, glucocorticoid receptor (estrogen-primed rabbit thymus) (Oryctolagus cuniculus, UniProt P59667).
T2 construct: preparation of cytosols for the progesterone and glucocorticoid receptor assays; from tissue; host or cells: thymus of estradiol-primed immature female New Zealand White rabbits (cytosol)
T2 sequence (P59667 1-772): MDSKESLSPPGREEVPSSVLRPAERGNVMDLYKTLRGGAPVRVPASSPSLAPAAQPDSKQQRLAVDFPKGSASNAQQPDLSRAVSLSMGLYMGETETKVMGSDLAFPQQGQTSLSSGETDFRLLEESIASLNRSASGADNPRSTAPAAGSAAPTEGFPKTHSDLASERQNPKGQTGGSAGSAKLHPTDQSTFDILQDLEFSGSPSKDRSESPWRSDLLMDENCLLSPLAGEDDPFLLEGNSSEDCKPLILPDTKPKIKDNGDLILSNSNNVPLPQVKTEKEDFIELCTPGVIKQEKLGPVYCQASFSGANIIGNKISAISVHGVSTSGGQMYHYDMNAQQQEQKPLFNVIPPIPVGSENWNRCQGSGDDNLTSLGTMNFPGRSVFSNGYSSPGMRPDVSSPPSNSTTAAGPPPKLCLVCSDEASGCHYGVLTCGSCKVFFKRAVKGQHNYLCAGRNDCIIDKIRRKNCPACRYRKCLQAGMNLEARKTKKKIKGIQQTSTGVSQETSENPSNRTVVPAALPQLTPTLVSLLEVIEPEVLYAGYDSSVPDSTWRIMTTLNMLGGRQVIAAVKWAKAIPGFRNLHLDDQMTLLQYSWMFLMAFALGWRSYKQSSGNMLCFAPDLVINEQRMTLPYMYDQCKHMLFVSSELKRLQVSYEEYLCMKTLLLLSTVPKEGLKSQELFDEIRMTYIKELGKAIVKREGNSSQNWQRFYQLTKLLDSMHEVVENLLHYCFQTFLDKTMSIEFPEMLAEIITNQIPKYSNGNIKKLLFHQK
Description: Relative binding affinity, glucocorticoid receptor. Particulars: estrogen-primed rabbit thymus, dexamethasone = 100%; for BINDING AFFINITY Glucocortic: Table 2. The method, then:
as §1, §2, §3, §4

Setting [4] is: estrogen-primed rabbit uterus, progesterone = 100%.

A value given as a limit tells only on which side of the number the result lay.

For `CN(C)c1ccc([C@H]2C[C@@]3(C)[C@@H](CC[C@]3(OC=O)C(=O)COC=O)[C@@H]3CCC4=CC(=O)CCC4=C32)cc1` [Compound 139, 17α,21-Diformyloxy-11β-[4-(N,N-dimethylamino)phenyl]-19-norpregna-4,9-diene-3,20-dione], the “BIOLOGICAL ACTIVITY antiClauberg” value in assay [1] (CDB-2914 = 100 (assigned)) was “inactive”. Further, the “BINDING AFFINITY Progester” value in assay [2] (setting [4]) was determined as 30%. In assay [3], the “BINDING AFFINITY Glucocortic” value stood at 79%.
With `COC1(C(C)=O)CCC2C3CCC4=CC(=O)CCC4=C3C(c3ccc(N(C)C)cc3)CC21C` (stereo not drawn) [Compound 97a, 17α-Methoxy-11β-[4-(N,N-dimethylamino)phenyl]-19-norpregna-4,9-diene-3,20-dione], the “BIOLOGICAL ACTIVITY antiClauberg” value in assay [1] (CDB-2914 = 100 (assigned)) was found to be 110. Further, the “antiClauberg / oral antiprogestational activity, in words” value in assay [1] is “greater activity than the standard”. In addition, the “BINDING AFFINITY Progester” value in assay [2] (setting [4]) is recorded as 120%. In assay [2] (progesterone receptor implied (rabbit or human isoform A not specified)), the “binding affinities compared with the standard, compound 69B” value is “binding affinities greater than that observed for the standard”. In assay [3], the “BINDING AFFINITY Glucocortic” value is 52%.
In the case of `COC1(C(C)=O)CCC2C3CCC4=CC(=O)CCC4=C3C(c3ccc(N4CCCCC4)cc3)CC21C` (stereo not drawn) [Compound 97b, 17α-Methoxy-1-[4-(piperidino)phenyl]-19-norpregna-4,9-diene-3,20-dione], the “BIOLOGICAL ACTIVITY antiClauberg” value in assay [1] (CDB-2914 = 100 (assigned)) was 99. Besides, the “BINDING AFFINITY Progester” value in assay [2] (setting [4]) was found to be 47%. Besides, in assay [3], the “BINDING AFFINITY Glucocortic” value is listed as 38%.
In the case of `CCC(=O)OCC(=O)[C@@]1(OC(C)=O)CCC2C3CCC4=CC(=O)CCC4=C3C(c3ccc(N(C)C)cc3)C[C@@]21C` (stereo partly drawn) [Compound 126a, 17α-Acetoxy-11β-[4-(N,N-dimethylamino)phenyl]-21-propionyloxy-19-norpregna-4,9-diene-3,20-dione], the “BIOLOGICAL ACTIVITY antiClauberg” value in assay [1] (CDB-2914 = 100 (assigned)) was 170. For the same molecule, the “antiClauberg / oral antiprogestational activity, in words” value in assay [1] is recorded as “greater activity than the standard”. In addition, the “BINDING AFFINITY Progester” value in assay [2] (setting [4]) is on record as 95%. Moreover, in assay [3], the “BINDING AFFINITY Glucocortic” value came out at 43%.
As to `CCOCC(=O)[C@@]1(OC(C)=O)CCC2C3CCC4=CC(=O)CCC4=C3C(c3ccc(N(C)C)cc3)C[C@@]21C` (stereo partly drawn) [Compound 46, 17α-acetoxy-21-ethoxy-11β-[4-(N,N-dimethylamino)phenyl]-9-norpregna-4,9-diene-3,20-dione], the “ANTIPROGESTATIONAL Anti-Clauberg” value in assay [1] (relative potency, CDB-2914 = 100 (assigned)) was 130-210. Besides, the “antiClauberg / oral antiprogestational activity, in words” value in assay [1] is “greater activity than the standard”. For the same molecule, the “RELATIVE BINDING AFFINITY Progesterone” value in assay [2] (setting [4]) was 83%. Besides, the “RELATIVE BINDING AFFINITY Glucocorticoid” value in assay [3] was determined as 46%.
Consider `COCC(=O)C1(OC(C)=O)CCC2C3CCC4=CC(=O)CCC4=C3C(c3ccc(C(C)=O)cc3)CC21C` (stereo not drawn) [Compound 123b, 17α-Acetoxy-11β-(4-acetylphenyl)-21-methoxy-19-norpregna-4,9-diene-3,20-dione], for which the “BIOLOGICAL ACTIVITY antiClauberg” value in assay [1] (CDB-2914 = 100 (assigned)) was found to be 77. Also, the “BINDING AFFINITY Progester” value in assay [2] (setting [4]) was determined as 64%. Also, the “BINDING AFFINITY Glucocortic” value in assay [3] was 45%.
Consider `CSc1ccc([C@H]2C[C@@]3(C)[C@@H](CC[C@]3(OC(C)=O)C(C)=O)[C@@H]3CCC4=CC(=O)CCC4=C32)cc1` [Compound 74], for which the “BIOLOGICAL ACTIVITY antiClauberg” value in assay [1] (CDB-2914 = 100 (assigned)) was <10. The “BINDING AFFINITY Progester” value in assay [2] (setting [4]) worked out at 131%. In addition, the “BINDING AFFINITY Glucocortic” value in assay [3] is listed as 32%.
Take `COC(=O)OCC(=O)C1(OC(C)=O)CCC2C3CCC4=CC(=O)CCC4=C3C(c3ccc(N(C)C)cc3)CC21C` (stereo not drawn) [Compound 126c, 17α-Acetoxy-21-hydroxy-11β-[4-(N,N-dimethylamino)phenyl]-19-norpregna-4,9-diene-3,20-dione-21-methyl carbonate]: in assay [1] (CDB-2914 = 100 (assigned)), the “BIOLOGICAL ACTIVITY antiClauberg” value was found to be 224. In assay [1], the “antiClauberg / oral antiprogestational activity, in words” value was “greater activity than the standard”. Also, the “BINDING AFFINITY Progester” value in assay [2] (setting [4]) is listed as 68%. Also, the “BINDING AFFINITY Glucocortic” value in assay [3] is reported as 67%.
